Experimental findings from patent publication US20210189342A1, “COMPOSITIONS AND METHODS FOR MODULATING MONOCYTE AND MACROPHAGE INFLAMMATORY PHENOTYPES AND IMMUNOTHERAPY USES THEREOF” (Verseau Therapeutics, Inc., priority 2018, published 2021) are described below.

The series relates to SIGLEC9. Nature of the series: siRNA dose response, SIGLEC9 mRNA knockdown, Dual-Glo Luciferase Assay. It counts as cell-based, human. The note with it: Hepa1-6 + reporter plasmid, 24 hr. How it is done:
Dose response curves for siRNAs were generated in vitro using a variety of cell lines according to Table 4.
Briefly, cells were seeded in 96-well plates and reverse transfected with siRNA, Lipofectamine® 2000 (0.5 uL/well; ThermoFisher), and, in some cases, a reporter plasmid (50 ng/well). The reporter plasmid (psiCHECK™-2, Promega) encoded both firefly luciferase and the gene of interest fused to renilla luciferase; silencing of the gene of interest results in proportional silencing of renilla luciferase but leaves firefly luciferase unaffected as an internal control.
After 24 hr incubation at 37° C., mRNA knockdown was measured using an endpoint assay. For targets without a reporter plasmid, a branched DNA (bDNA) assay was performed according to the manufacturer's instructions (QuantiGene® Singleplex Gene Expression Assay, ThermoFisher) to measure both the target gene and GAPDH (housekeeping gene) mRNA. Data are plotted as siRNA concentration (nM) vs. remaining mRNA (ratio of target gene to GAPDH, normalized to mock siRNA-transfected cells). For targets with a reporter plasmid, a Dual-Glo® Luciferase Assay was performed according to the manufacturer's instructions (Promega) to measure firefly and renilla luciferase expression. Data are plotted as siRNA concentration (nM) vs. remaining mRNA (ratio of renilla to firefly luminescence, normalized to mock siRNA-transfected cells).
For all dose response curves, a 4-parameter logistic model was applied to determine the IC50 of each siRNA sequence (Table 5 and FIG. 2). Data shown in Table 5 and FIG. 2 represent the mean of quadruplicates, +/−standard deviation.

For the substance “XD-09180: siRNA targeting SIGLEC9 (sense 5'-acAAGuAAAcuGcuGacGAdTsdT-3'; antisense 5'-UCGUcAGcAGUUuACUUGUdTsdT-3'; RNA with 2'-O-methyl and phosphorothioate modifications, case key not given here, as printed in the source, key not given here)”, the half-inhibitory concentration (IC50) came out at 40 pM.

As to “XD-09181: siRNA targeting SIGLEC9 (sense 5'-guAAAcuGcuGAcgAuGcAdTsdT-3'; antisense 5'-UGcAUCGUcAGcAGUUuACdTsdT-3'; RNA with 2'-O-methyl and phosphorothioate modifications, case key not given here, as printed in the source, key not given here)”, the 50% inhibitory concentration (IC50) was 286 pM.

Regarding “XD-09182: siRNA targeting SIGLEC9 (sense 5'-ucGcAuGGcuGGAuuuAccdTsdT-3'; antisense 5'-GGuAAAUCcAGCcAUGCGAdTsdT-3'; RNA with 2'-O-methyl and phosphorothioate modifications, case key not given here, as printed in the source, key not given here)”, the concentration for half-maximal inhibition (IC50) was found to be 837 pM.

As to “XD-09183: siRNA targeting SIGLEC9 (sense 5'-guuccGGGAAGGGgccAAudTsdT-3'; antisense 5'-AUUGGCCCCUUCCCGGAACdTsdT-3'; RNA with 2'-O-methyl and phosphorothioate modifications, case key not given here, as printed in the source, key not given here)”, the IC50 was 229 pM.

Turning to “XD-09184: siRNA targeting SIGLEC9 (sense 5'-ggGccAAuAcAGAccAGGAdTsdT-3'; antisense 5'-UCCUGGUCUGuAUUGGCCCdTsdT-3'; RNA with 2'-O-methyl and phosphorothioate modifications, case key not given here, as printed in the source, key not given here)”, the IC50 was found to be 127 pM.

As for “XD-09185: siRNA targeting SIGLEC9 (sense 5'-ccAGAAGAAGuGAuGcGGGdTsdT-3'; antisense 5'-CCCGcAUcACUUCUUCUGGdTsdT-3'; RNA with 2'-O-methyl and phosphorothioate modifications, case key not given here, as printed in the source, key not given here)”, the 50% inhibitory concentration (IC50) is 94 pM.

For “XD-09186: siRNA targeting SIGLEC9 (sense 5'-ucAccGGcucucuguGAAudTsdT-3'; antisense 5'-AUUcAcAGAGAGCCGGUGAdTsdT-3'; RNA with 2'-O-methyl and phosphorothioate modifications, case key not given here, as printed in the source, key not given here)”, the IC50 was determined as 488 pM.

Regarding “XD-09187: siRNA targeting SIGLEC9 (sense 5'-gaccAcGaacAAGaccGucdTsdT-3'; antisense 5'-GACGGUCUUGUUCGUGGUCdTsdT-3'; RNA with 2'-O-methyl and phosphorothioate modifications, case key not given here, as printed in the source, key not given here)”, the IC50 was found to be 406 pM.

Take “XD-09188: siRNA targeting SIGLEC9 (sense 5'-gaAcAAGAccGuccAucucdTsdT-3'; antisense 5'-GAGAUGGACGGUCUUGUUCdTsdT-3'; RNA with 2'-O-methyl and phosphorothioate modifications, case key not given here, as printed in the source, key not given here)”: the 50% inhibitory concentration (IC50) is 148 pM.

Regarding “XD-09189: siRNA targeting SIGLEC9 (sense 5'-agAccGuccAucucAAcGudTsdT-3'; antisense 5'-ACGUUGAGAUGGACGGUCUdTsdT-3'; RNA with 2'-O-methyl and phosphorothioate modifications, case key not given here, as printed in the source, key not given here)”, the half-maximal inhibitory concentration (IC50) came to 694 pM.
